Where two headings read alike, the source gives them in different places.
Legend:
Format in all cases: cell-based
OCI-LY10 = OCI-LY10 viability, CTG; conditions: for IC50: Homo sapiens, OCI-Ly10
IRAK4 [1] = biological target: T1, IRAK4 (Homo sapiens (Human), UniProt Q9NWZ3); assay: IRAK4 degradation in human whole blood lymphocyte - flow cytometry; conditions: read-out: IRAK4 degradation in whole blood lymphocyte-Flow cytometry: Average external Abs IC50
Procedure, shortened: (§1)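 Fresh heparinized human whole blood dosed (10-point, 5-fold, 0.1% DMSO) for 20 h or 4 h at 37 °C, then fixed, stained and IRAK4 MFI quantified by flow in CD14+ monocytes and CD14− lymphocytes. DC50 and Dmax via 4-parameter logistic fit normalized to DMSO and 10 μM control.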

IRAK4 [2] = biological target: T1, IRAK4; assay: IRAK4 MSD degradation in OCI-LY10; conditions: for DC50: OCI-LY10, 4 hrs, MSD, read-out: IRAK4 MSD degradation in OCI-LY10 at 4 hrs: Average external-Abs DC50
Procedure, shortened: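 OCI-LY10 cells treated with 8-point 1:3 dilutions (top 1 to 10 μM final) for 4 to 24 h at 37° C. Lysate IRAK4 measured by MSD sandwich immunoassay (2H9 capture, Y279 detection, SULFO-TAG anti-rabbit). DC50 from three-parameter logistic fit.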

TNFα [3] = assay: Human whole blood LPS TNFα assay; conditions: 20 h pretreatment, LPS 5 h, read-out: IRAK4 human whole blood LPS TNFa inhibition: Average external-IC50
Procedure, shortened: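 Fresh human whole blood pretreated 20 h at 37 °C with compound (8-point, 5-fold dilution from 2 μM start), then stimulated with 100 ng/ml LPS (final) for 5 h. Plasma TNFα quantified by MSD V-plex, normalised to stimulated and unstimulated controls; IC50 from 4-parameter logistic fit.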

IRAK4 [4] = biological target: T1, IRAK4; assay: IRAK4 degradation in human whole blood monocyte - flow cytometry; conditions: read-out: IRAK4 degradation in whole blood monocyte-Flow cytometry: Average external Abs IC50
Procedure, shortened: as §1

TNFα [5] = assay: Human PBMC LPS TNFα assay; conditions: hPBMC, LPS stimulation, read-out: IRAK4 hPBMC LPS TNF-α inhibition: Average external-IC50
Method: Human PBMC LPS TNFα assay. Frozen PBMCs were thawed into RPMI with 10% FBS/1% penicillin/streptomycin and same day plated into 96 well plates at 200,000 PBMC/[…] media per well. Compound plates were prepared in DMSO with D300 cassette as 8-point dose curves in duplicate, starting dose 2 μM, 5-fold. Compounds are added 200 nL into cells for final 200 μL per well. Compound and cells were incubated at 37° C., 5% CO2 for 20 hours. After twenty hours of pretreatment with the compounds, LPS (01 1 1:B4) (Sigma #L2637) was added at 100 ng/ml final concentration and PBMCs incubated an additional five hours at 37° C., 5% CO2. Following assay completion, PBMC plates were spun down at 2000 rpm for 10 minutes. 100 uL of supernatant was carefully removed and placed into a new 96 well Costar (#3879) plate and stored at −80° C. until further analysis. Meso scale Discovery (MSD) human V-plex assays were used to measure cytokine levels. On day of cytokine analysis, supernatant samples were thawed, diluted with V-plex diluent #2, and directly to MSD plates. Assay was further completed per standard manufacturer's protocol. Cytokine data was normalized to LPS stimulated and unstimulated controls. Prism Graphpad was used to generate IC50 using 4 parameter logistic regression curve, free-fit.

T1 sequence (Q9NWZ3 whole entry): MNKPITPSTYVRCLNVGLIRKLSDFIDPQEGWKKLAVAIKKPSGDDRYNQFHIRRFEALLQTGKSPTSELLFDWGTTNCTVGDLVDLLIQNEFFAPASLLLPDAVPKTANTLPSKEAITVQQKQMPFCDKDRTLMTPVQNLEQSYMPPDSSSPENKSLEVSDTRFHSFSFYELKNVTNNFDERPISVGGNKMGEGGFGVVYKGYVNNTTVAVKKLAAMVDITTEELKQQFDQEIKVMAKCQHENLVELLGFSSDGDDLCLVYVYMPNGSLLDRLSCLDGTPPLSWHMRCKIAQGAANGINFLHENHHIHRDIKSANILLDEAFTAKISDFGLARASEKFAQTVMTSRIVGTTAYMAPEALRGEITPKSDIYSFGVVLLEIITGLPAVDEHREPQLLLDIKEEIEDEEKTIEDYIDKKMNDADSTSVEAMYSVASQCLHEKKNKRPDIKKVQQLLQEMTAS

SMILES: CN(CCCOCCCc1cccc2c1n(C)c(=O)n2C1CCC(=O)NC1=O)C[C@H]1CC[C@H](n2cc(NC(=O)c3coc(-c4ccnc(NCC5CC5)c4)n3)c(C(F)F)n2)CC1 (mixture of isomers) [I-30, 2-[2-(Cyclopropylmethylamino)-4-pyridyl]-N-[3-(difluoromethyl)-1-[4-[[3-[3-[1-(2,6-dioxo-3-piperidyl)-3-methyl-2-oxo-benzimidazol-4-yl]propoxy]propyl-methyl-amino]methyl]cyclohexyl]pyrazol-4-yl] oxazole-4-carboxamide]
- Cell Titer Glo assay, combination effect (OCI-LY10; combination of ibrutinib and degrader I-30 (FIG. 12B)): synergism
- DC50 (IRAK4 [1]): < 50 nM
- DC50 (IRAK4 [2]): < 10 nM
- depletion of IRAK4 in MYD88 mutant lymphoma cell lines (IRAK4 [2]; OCI-LY10 and TMD8, FIGS. 1-3 and 10): potent depletion of IRAK4
- IC50 (TNFα [3]): 100 to 500 nM
- IC50 (IRAK4 [4]): < 50 nM
- IC50 (TNFα [5]): 50 to 100 nM

SMILES: CN(C[C@H]1CC[C@H](n2cc(NC(=O)c3coc(-c4ccnc(NCC5CC5)c4)n3)c(C(F)F)n2)CC1)C1CCN(Cc2cccc3c2n(C)c(=O)n3C2CCC(=O)NC2=O)CC1 (some centres unmarked) [I-75, 2-(2-((cyclopropylmethyl)amino)pyridin-4-yl)-N-(3-(difluoromethyl)-1-((1r,4r)-4-(((1-((1-(2,6-dioxopiperidin-3-yl)-3-methyl-2-oxo-2,3-dihydro-1H-benzo[d]imidazol-4-yl)methyl)piperidin-4-yl)(methyl)amino)methyl)cyclohexyl)-1H-pyrazol-4-yl)oxazole-4-carboxamide]
- IC50 (OCI-LY10; MYD88 MUT, read-out: OCI-LY10 CTG IC50): 11 nM
- IC50 (OCI-LY10; MYD88 Mutant Lines, read-out: OCI-LY10 Viability, CTG IC50): 11 nM
- DC50 (IRAK4 [1]): 50 to 100 nM
- DC50 (IRAK4 [2]): < 10 nM
- IC50 (TNFα [3]): > 1000 nM
- DC50 (IRAK4 [4]): 50 to 100 nM
- IC50 (TNFα [5]): < 50 nM

Source: patent US11352350B2, “IRAK degraders and uses thereof” (Kymera Therapeutics, Inc., priority 2018, dated 2022)
